Numbered stars: 1 amine (or outer) side, 2 acyl side, 3 side chain; on linkers, the order of the positions; unused ones are H or OH. Square brackets hold non-standard residues; d marks the D form. Peptide text beside a SMILES is read from it. γGlu = O=C(O)[C@H](CCC(=O)[*:2])N[*:1]; Nspe = C[C@H](NCC(=O)O)c1ccccc1; Nlys = NCCCCNCC(=O)O
Assays:
Assay type in all cases: functional
[1] = tested on: PC-3; assay: Cytotoxicity against human PC3 cells assessed as induction of cell death after 48 hrs by MTS assay; conditions: PC-3, 48 h, read-out: LC50 (the source's name)
[2] = tested on: LNCaP; assay: Selectivity ratio of LC50 for human PC3 cells to LC50 for human LNCaP cells
[3] = tested on: LNCaP; assay: Cytotoxicity against human LNCAP cells assessed as induction of cell death after 48 hrs by MTS assay; conditions: read-out: LC50 (the source's name)

| Structure (SMILES) | CC50 [1] [µM] | RatioLC50 [2] | CC50 [3] [µM] |
| --- | --- | --- | --- |
| CC(C)C[C@H](NC(=O)[C@H](CCCCN)NC(=O)[C@H](CO)NC(=O)[C@H](CO)NC(=O)[C@H](Cc1cnc[nH]1)NC(=O)CC[C@H](NC(=O)CC[C@H](NC(=O)CC[C@H](NC(=O)CC[C@H](N)C(=O)O)C(=O)O)C(=O)O)C(=O)O)C(=O)N[C@@H](CCC(N)=O)C(=O)N(CCCCN)CC(=O)N(CC(=O)N(CC(=O)N(CCCCN)CC(=O)N(CC(=O)N(CC(=O)N(CCCCN)CC(=O)N(CC(=O)N(CC(=O)N(CCCCN)CC(=O)N(CC(=O)N(CC(N)=O)[C@@H](C)c1ccccc1)[C@@H](C)c1ccccc1)[C@@H](C)c1ccccc1)[C@@H](C)c1ccccc1)[C@@H](C)c1ccccc1)[C@@H](C)c1ccccc1)[C@@H](C)c1ccccc1)[C@@H](C)c1ccccc1 ({γGlu-γGlu-γGlu-γGlu}-HSSKLQ[Nlys][Nspe][Nspe][Nlys][Nspe][Nspe][Nlys][Nspe][Nspe][Nlys][Nspe][Nspe]-NH2) | 36 | 2.1 | 17 |
| CC(=O)N[C@@H](CCC(=O)N[C@@H](CCC(=O)N[C@@H](Cc1cnc[nH]1)C(=O)N[C@@H](CO)C(=O)N[C@@H](CO)C(=O)N[C@@H](CCCCN)C(=O)N[C@@H](CC(C)C)C(=O)N[C@@H](CCC(N)=O)C(=O)N(CCCCN)CC(=O)N(CC(=O)N(CC(=O)N(CCCCN)CC(=O)N(CC(=O)N(CC(=O)N(CCCCN)CC(=O)N(CC(=O)N(CC(=O)N(CCCCN)CC(=O)N(CC(=O)N(CC(N)=O)[C@@H](C)c1ccccc1)[C@@H](C)c1ccccc1)[C@@H](C)c1ccccc1)[C@@H](C)c1ccccc1)[C@@H](C)c1ccccc1)[C@@H](C)c1ccccc1)[C@@H](C)c1ccccc1)[C@@H](C)c1ccccc1)C(=O)O)C(=O)O (Ac-[γGlu][γGlu]HSSKLQ[Nlys][Nspe][Nspe][Nlys][Nspe][Nspe][Nlys][Nspe][Nspe][Nlys][Nspe][Nspe]-NH2) | 28 | 1.6 | 18 |
